Measured values reported in PMC7411887, “New Paracyclophanylthiazoles with Anti-Leukemia Activity: Design, Synthesis, Molecular Docking, and Mechanistic Studies” (Molecules, 2020).
Where “and” joins values, the source holds several entries; their conditions need not be identical. Identical values can stand only once. Entries after “also recorded” stand apart in the source; their conditions may differ. Like-named read-outs stand apart in the source and are kept apart here.

How the values were obtained:
BAX = BAX assay on leukemia SR cell line; type: cell-based, human; conditions: for BAX Concentration: ± SD
Experimental: 19. Read the concentrations for unknown samples and controls from the standard curve.
All standards, controls and samples should be run in duplicate. […]
desiccant back into the pouch and seal the ziploc. Store unused wells at 4 °C.
4. Pipet 100 μL of the Samples into the appropriate wells.
7. Empty the contents of the wells and wash by adding 400 μL of wash solution to every well.
8. Repeat the wash 4 more times for a total of 5 washes.
9. After the final wash, empty or aspirate the wells and firmly tap the plate on a lint free paper towel to remove any remaining wash buffer.
10. Pipet 100 μL of yellow Antibody into each well, except the Blank.
12. Empty the contents of the wells and wash by adding 400 μL of wash solution to every
13. Repeat the wash 4 more times for a total of 5 washes.
14. After the final wash, empty or aspirate the wells and firmly tap the plate on a lint free
(§1) 17. Empty the contents of the wells and wash by adding 400 μL of wash solution to every
(§2) 18. Repeat the wash 4 more times for a total of 5 washes.
(§3) 19. After the final wash, empty or aspirate the wells and firmly tap the plate on a lint free
(§4) 20. Pipet 100 μL of Substrate Solution into each well.
(§5) 21. Incubate for 30 minutes at room temperature on a plate shaker at ~500 rpm.
(§6) 1. Mix all reagents thoroughly without foaming before use.
(§7) 3. Take caution not to scratch the surface of the microwells.
5. Use the microwell strips immediately after washing or place upside down on a wet absorbent paper for not longer than 15 minutes.
(§8) Prepare standard (1:2 dilution) in duplicate ranging from 32

leukemia RPMI-8226 = assay: MTT antiproliferative assay
SR cancer cell line = assay: Mitochondrial membrane potential assay; type: cell-based, human
leukemia SR = assay: MTT antiproliferative assay; conditions: Homo sapiens, read-out: Cytotoxicity IC50 L.SR
leukemia SR cells = assay: Cell cycle analysis, propidium iodide flow cytometry; conditions: for DNA Content % %G0-G1 / DNA Content % %G2-M / DNA Content % %Pre G1 / DNA Content % %S: at IC50, 24 h
Bcl-2 = Bcl-2 assay on leukemia SR cell line; type: cell-based, human; conditions: for Bcl2 Concentration: ± SD
Experimental: as §1, §2, §3
paper towel to remove any remaining wash buffer.
as §4, §5, §6, §7
5. Use the microwell strips immediately after washing or place upside down on a wet
absorbent paper for not longer than 15 minutes.
as §8
8. Add 50 μL of diluted biotin-conjugate to all wells, including the blank wells.
10. Remove plate cover and empty the wells.
13. Remove plate cover and empty the wells.
Proceed to the next step.
available on a rotator set at 100 rpm. Avoid direct exposure to intense light.

EKVX = assay: NCI single-dose screen (SRB); type: cell-based; conditions: Homo sapiens; Non-Small-Cell Lung Cancer EKVX; 10^−5 M; read-out: Growth inhibition percentage
Method in brief: (§9)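 Percent growth vs. untreated control cells, SRB dye end-point measured spectrophotometrically, after 48 h with compound at 10^−5 M; triplicate runs.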

U251 = assay: NCI single-dose screen (SRB); type: cell-based; conditions: Homo sapiens, U-251; CNS Cancer U251; 10^−5 M; read-out: Growth inhibition percentage
Method in brief: as §9

ACHN = assay: NCI single-dose screen (SRB); type: cell-based; conditions: Homo sapiens; Renal Cancer ACHN; 10^−5 M; read-out: Growth inhibition percentage
Method in brief: as §9

β-tubulin = target: T1, β-tubulin (Homo sapiens, UniProt P07437); assay: Tubulin polymerization inhibition (ELISA for TUBb, SR cell line); type: cell-based; conditions: IC50 ± SEM
T1 construct: endogenous in cells; host or cells: leukemia SR cell line
Experimental: The in vitro kinetics of microtubule assembly was measured using an ELISA kit for TUBb (Cloud-Clone. Corp.) on the leukemia SR cell line. The compounds tested were 3a–f and colchicine. Briefly, growing cells from the SR cell line were trypsinized, counted, and seeded at the appropriate densities into 96-well microtiter plates.
4. Tubulin polymerization inhibitory activity […]
bind the biotin labeled antibody. […]
spectrophotometrically at a wavelength of 450 nm ± 10 nm. The decrease of color intensity was measured as a sign for tubulin inhibition. The results were calculated as the concentration of TUBb available for antibody reaction, and the percent inhibition of TUBb was calculated for each sample as a percent of control. In vitro kinetics of microtubule assembly was measured using ELISA kit for TUBb (Cloud-Clone. Corp.) on SR cell line. Briefly, growing cells from Leukemia SR cell lines were trypsinized, counted and seeded at the appropriate densities into 96-well microtiter plates. Cells then were incubated in a humidified atmosphere at oC for 24 h. The standards, the tested compounds, and the control colchicine were diluted to designated concentrations. On the 96-well microtiter plates standard or sample was added to each well in […] and incubated at oC for 2 h. The solution was aspirated, and […] of prepared detection reagent A was added to each well. Incubation was done at oC for 2 h. After washing […] of prepared Detection Reagent B was added and incubation was continued at oC for 30 min. Five washings were done, then […] of 3,30,5,50-tetramethylbenzidine (TMB) substrate solution was added and incubated at oC for 15-25 min. Stop solution was added in […].
Optical density (O.D.) was measured at 450 nm using micro-plate reader (Spectromax Plus 96 well plate spectrophotometer). […]
the treated cells compared to that of the untreated control cells.
5. Multidrug resistance Assay
Before adding to wells, equilibrate the SABC working solution and TMB substrate for at least 30 […]
When diluting samples and reagents, they must be mixed completely and evenly. It is recommended plotting a standard curve for each test.

[1] = Homo sapiens, RPMI-8226, read-out: Cytotoxicity IC50 RPMI-8226, MTT, mean ± SD

T1 sequence (P07437 whole entry): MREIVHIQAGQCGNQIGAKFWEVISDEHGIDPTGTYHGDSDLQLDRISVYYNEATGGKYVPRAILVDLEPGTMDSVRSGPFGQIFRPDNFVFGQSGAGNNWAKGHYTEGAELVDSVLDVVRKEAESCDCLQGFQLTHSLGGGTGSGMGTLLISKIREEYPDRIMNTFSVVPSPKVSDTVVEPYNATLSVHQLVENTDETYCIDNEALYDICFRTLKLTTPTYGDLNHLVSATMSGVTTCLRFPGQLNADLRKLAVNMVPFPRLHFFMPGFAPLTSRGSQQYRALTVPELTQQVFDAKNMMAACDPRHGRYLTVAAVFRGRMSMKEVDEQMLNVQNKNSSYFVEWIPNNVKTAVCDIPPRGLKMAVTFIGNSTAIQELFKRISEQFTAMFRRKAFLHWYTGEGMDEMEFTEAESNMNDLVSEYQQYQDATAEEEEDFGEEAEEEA
T1 sequence (P68363 whole entry partner): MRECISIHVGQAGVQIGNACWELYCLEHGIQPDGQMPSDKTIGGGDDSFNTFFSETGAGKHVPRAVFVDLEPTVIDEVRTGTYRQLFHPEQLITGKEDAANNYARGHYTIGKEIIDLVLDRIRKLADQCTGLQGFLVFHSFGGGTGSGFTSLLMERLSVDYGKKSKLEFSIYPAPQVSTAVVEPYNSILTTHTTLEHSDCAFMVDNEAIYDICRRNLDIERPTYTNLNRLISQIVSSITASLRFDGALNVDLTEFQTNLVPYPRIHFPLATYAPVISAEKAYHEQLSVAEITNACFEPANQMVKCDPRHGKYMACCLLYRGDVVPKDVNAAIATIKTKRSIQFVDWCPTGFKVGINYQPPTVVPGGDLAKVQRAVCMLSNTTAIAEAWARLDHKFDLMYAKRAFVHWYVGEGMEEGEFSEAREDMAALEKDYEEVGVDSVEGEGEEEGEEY

| Compound | IC50 (leukemia SR) | inhibition at 10 µM (EKVX) | inhibition at 10 µM (U251) | inhibition at 10 µM (ACHN) | IC50 (leukemia RPMI-8226; [1]) | IC50 (β-tubulin) | melting point | other results |
| --- | --- | --- | --- | --- | --- | --- | --- | --- |
| COc1cc2c(c(OC)c1OC)-c1ccc(OC)c(=O)cc1[C@@H](NC(C)=O)CC2 [Colchicine, colchicine, reference compound] | 1.81 ± 0.0701 µM | – | – | – | – | – | – | BAX Concentration (BAX): 341.8 ± 4.310 pg/mL; IC50 (leukemia RPMI-8226; Homo sapiens, RPMI-8226, read-out: Cytotoxicity IC50 RPMI-8226): 4.05 ± 0.0478 µM; mitochondrial membrane potential % Live cells (SR cancer cell line): 65.04%; mitochondrial membrane potential ΔΨm % Apoptic cells (SR cancer cell line): 34.96%; shift in fluorescence (Δψmt) compared with control cells (SR cancer cell line): significant results; DNA Content % Comment (leukemia SR cells): cell growth arrest (G2/M); DNA Content % %G0-G1 (leukemia SR cells): 26.58%; DNA Content % %G2-M (leukemia SR cells): 48.15 ± 1.000 %; DNA Content % %Pre G1 (leukemia SR cells): 36.24%; DNA Content % %S (leukemia SR cells): 25.27%; Bcl2 Concentration (Bcl-2): 4.101 ± 0.1441 ng/mL |
| COC(=O)C=C1SC(=Nc2cccnc2)N(NC(=O)c2cc3ccc2CCc2ccc(cc2)CC3)C1=O [Compound 3c, Methyl (E)-2-((E)-3-[2.2]paracyclophanyl)amido-4-oxo-2-(pyridin-3-ylimino)-thiazolidin-5-ylidene)acetate] | 4.84 ± 0.0843 µM | 2.61% | 14.7% | 11% | 9.69 µM | 8.38 µM and 8.28 µM | 262 to 264 °C (dec.) | IC50 (leukemia RPMI-8226; read-out: Cytotoxicity IC50 RPMI-8226, MTT, mean ± SD): 9.96 ± 0.345 µM |
| C=CCN1C(=O)C(=CC(=O)OC)SC1=NNC(=O)c1cc2ccc1CCc1ccc(cc1)CC2 [Compound 3d] | 22.06 ± 0.0679 µM | 9.16% | 18.2% | 12.2% | 17.81 ± 0.0544 µM | 14.8 ± 0.32 µM | 241 to 243 °C | – |
| COC(=O)C=C1SC(=NNC(=O)c2cc3ccc2CCc2ccc(cc2)CC3)N(Cc2ccccc2)C1=O [Compound 3b] | 2.02 ± 0.0688 µM | 22.3% | 45% | 34.2% | 4.62 ± 0.0459 µM | 8.38 ± 0.18 µM | 175 to 177 °C | – |
| COC(=O)/C=C1/S/C(=N/NC(=O)c2cc3ccc2CCc2ccc(cc2)CC3)N(C2CC2)C1=O [Compound 3f] | – | 12.2% | 20.3% | 17.8% | – | – | 180 to 182 °C | – |
| COC(=O)C=C1SC(=NNC(=O)c2cc3ccc2CCc2ccc(cc2)CC3)N(c2ccccc2)C1=O [Compound 3a] | 1.11 ± 0.0685 µM | 41% | 84.2% | 30.7% | 1.61 ± 0.0654 µM | 4.97 ± 0.11 µM | – | BAX Fold Change (BAX; relative to control): ~7.98 fold; BAX Concentration (BAX): 359 ± 3.830 pg/mL; mitochondrial membrane potential % Live cells (SR cancer cell line): 68.8%; mitochondrial membrane potential ΔΨm % Apoptic cells (SR cancer cell line): 31.2%; shift in fluorescence (Δψmt) compared with control cells (SR cancer cell line): non-significant shift; DNA Content % Comment (leukemia SR cells): significant growth arrest at the G2/M phase; also recorded: cell growth arrest (G2/M); DNA Content % %G0-G1 (leukemia SR cells): 31.47%; DNA Content % %G2-M (leukemia SR cells): 44.74 ± 0.1747 %; DNA Content % %Pre G1 (leukemia SR cells): 33.71%; DNA Content % %S (leukemia SR cells): 23.79%; Bcl2 Fold Change (Bcl-2; relative to control): 0.59 fold; Bcl2 Concentration (Bcl-2): 5.045 ± 0.1918 ng/mL |
| CCN1C(=O)C(=CC(=O)OC)SC1=NNC(=O)c1cc2ccc1CCc1ccc(cc1)CC2 [Compound 3e] | 5.04 ± 0.0791 µM | 6.44% | 15.6% | 10.4% | 3.17 ± 0.0489 µM | 6.61 ± 0.14 µM | 220 to 222 °C | – |
